Tests used:
citrated blood plasma [1] = assay: In vitro activated partial thromboplastin time (APTT), citrated blood plasma; assay type: biochemical, human; design: unit not given here
Procedure: (§1) The antithrombin activity of the compounds of general formula (I) was determined by the usual method [Bagdy et al.: Thromb Haemostas 67, 325-330 (1992)] by measuring whole blood clotting time (WBCT), thrombin time (TT) and activated partial thromboplastin time (APTT). The in vitro activity of some compounds of the invention assayed on native human blood (non-anticoagulated clotting) (WBCT) and on citrated blood plasma (TT and APTT) is presented in Table 1.
(§2) ^2 WBCT = whole blood clotting time, TT = thrombin time, APTT =
(§3) activated partial thromboplastin time parameter. The figures represent
(§4) concentrations of the compounds required to double the clotting time of
(§5) native whole human blood or of citrated blood plasma.

native whole human blood = assay: In vitro whole blood clotting time (WBCT), native human blood; assay type: biochemical; design: unit not given here
Procedure: as §1, §2, §3, §4, §5

citrated blood plasma [2] = assay: In vitro thrombin time (TT), citrated blood plasma; assay type: biochemical, human; design: unit not given here
Procedure: as §1, §2, §3, §4, §5

[3] = test system: fibrinolysis induced by tissue plasminogen activator; assay: Fibrinolysis induced by tissue plasminogen activator, thromboelastogram; assay type: biochemical
Excerpt: The compounds of the general formula (I) inhibit clot formation without interfering with the natural lysis of blood clots in the body, e.g. fibrinolysis. […] Thromboelastography. In: Bang N. U., F. K. Beller, E. Deutsch, E. F. Mamman eds. Thrombosis and Bleeding Disorders. Theory and Methods. Academic Press, London, 1971: 70-76].

citrated plasma [4] = assay: In vivo antithrombin effect in rabbits: activated partial thromboplastin time (APTT)
Procedure: (§6) The in vivo antithrombin effect of the compounds of general formula (I) was treated in rabbits by a known method [Bagdy et al: Thromb Haemost 67, 357-365 (1992)]. The compounds were applied in a dose of 0.5-3.0 mg/kg s.c. and 5-15 mg/kg p.o. The effect was already detectable 15-30 minutes after drug administration, peak effect was attained after 90-120 minutes but the therapeutic effect was dose dependently maintained during 3 to longer than 5 hours.
(§7) The in vivo antithrombin effect of 3-cyclohexyl-D-lactyl-L-prolyl-L-arginine aldehyde hemisulfate (Example 7.) is presented in detail in Tables 2 and 3. The compound was administered in doses of 10 and 15 mg/kg, resp., p.o. and the blood samples taken from the ear-vein of the animals were assayed in every 30 minutes. The whole blood clotting time (WBCT) and the inhibition of whole blood platelet aggregation induced by thrombin (IWBA) were determined. Furthermore the citrated plasma thrombin time (TT) of the blood sample and the activated partial thromboplastin time (APTT) were measured, too. The WBCT and APTT values are presented in Table 2 and the TT and IWBA values in Table 3.

whole blood clotting = assay: In vivo antithrombin effect in rabbits: whole blood clotting time (WBCT)
Procedure: as §6, §7

[5] = test system: whole blood platelet aggregation induced by thrombin; assay: In vivo antithrombin effect in rabbits: inhibition of whole blood platelet aggregation induced by thrombin (IWBA)
Procedure: as §6, §7

citrated plasma [6] = assay: In vivo antithrombin effect in rabbits: citrated plasma thrombin time (TT)
Procedure: as §6, §7

In the case of `N=C(N)NCCC[C@@H](C=O)NC(=O)[C@@H]1CCCN1C(=O)[C@@H]1OCCc2ccccc21.N=C(N)NCCC[C@@H](C=O)NC(=O)[C@@H]1CCCN1C(=O)[C@@H]1OCCc2ccccc21.O=S(=O)(O)O` [Example 1, D-Isochroman-1-carbonyl-L-prolyl-L-arginine aldehyde hemisulfate], the “APTT: concentration required to double the clotting time” value (“APTT: concentration required” below) (citrated blood plasma [1]) is reported as 0.60, the “WBCT: concentration required to double the clotting time” value (“WBCT: concentration required” below) (native whole human blood) is reported as 1.55 and the “TT: concentration required to double the clotting time” value (citrated blood plasma [2]) is reported as 0.132.

For `N=C(N)NCCC[C@@H](C=O)NC(=O)[C@H]1CCCN1C(=O)C(O)c1ccccc1.N=C(N)NCCC[C@@H](C=O)NC(=O)[C@H]1CCCN1C(=O)C(O)c1ccccc1.O=S(=O)(O)O` (stereo partly drawn) [Example 6, D-2-Phenyl-2-hydroxyacetyl-L-prolyl-L-arginine aldehyde hemisulfate], the “APTT: concentration required” value (citrated blood plasma [1]) was 0.15, the “inhibitory effect on fibrinolysis induced by tissue plasminogen activator” value [3] was “only negligible inhibitory effect” and the “WBCT: concentration required” value (native whole human blood) was 0.45. The “TT: concentration required to double the clotting time” value (citrated blood plasma [2]) was 0.040.

Molecule `N=C(N)NCCC[C@@H](C=O)NC(=O)[C@@H]1CCCN1C(=O)[C@H](O)CC1CCCCC1.N=C(N)NCCC[C@@H](C=O)NC(=O)[C@@H]1CCCN1C(=O)[C@H](O)CC1CCCCC1.O=S(=O)(O)O` [Example 7, 3-Cyclohexyl-D-lactyl-L-prolyl-L-arginine aldehyde hemisulfate] has an APTT (citrated plasma [4]; 10 mg/kg p.o., time 0 min) of 27.7 ± 1.2 s, an APTT (citrated plasma [4]; 10 mg/kg p.o., time 30 min) of 58.9 ± 9.0 s and an APTT (citrated plasma [4]; 10 mg/kg p.o., time 60 min) of 77.6 ± 14.6 s. For the same molecule, the APTT (citrated plasma [4]; 10 mg/kg p.o., time 90 min) was 65.1 ± 8.4 s, the APTT (citrated plasma [4]; 10 mg/kg p.o., time 120 min) was 55.1 ± 11.4 s and the APTT (citrated plasma [4]; 10 mg/kg p.o., time 150 min) was 52.1 ± 6.6 s. The APTT (citrated plasma [4]; 10 mg/kg p.o., time 180 min) was 53.8 ± 8.5 s, the APTT (citrated plasma [4]; 10 mg/kg p.o., time 210 min) was 48.6 ± 3.8 s and the APTT (citrated plasma [4]; 10 mg/kg p.o., time 240 min) was 47.7 ± 7.4 s. It also gave an APTT (citrated plasma [4]; 10 mg/kg p.o., time 270 min) of 44.4 ± 3.7 s, an APTT (citrated plasma [4]; 10 mg/kg p.o., time 300 min) of 43.7 ± 5.0 s and an APTT (citrated plasma [4]; 15 mg/kg p.o., time 0 min) of 32.6 ± 4.6 s. The APTT (citrated plasma [4]; 15 mg/kg p.o., time 30 min) was 115.0 ± 36.6 s, the APTT (citrated plasma [4]; 15 mg/kg p.o., time 60 min) was 150.4 ± 30.9 s and the APTT (citrated plasma [4]; 15 mg/kg p.o., time 90 min) was 170.3 ± 18.5 s. For the same molecule, the APTT (citrated plasma [4]; 15 mg/kg p.o., time 120 min) was 145.6 ± 22.7 s, the APTT (citrated plasma [4]; 15 mg/kg p.o., time 150 min) was 149.2 ± 22.0 s and the APTT (citrated plasma [4]; 15 mg/kg p.o., time 180 min) was 169.0 ± 23.0 s. For the same molecule, the APTT (citrated plasma [4]; 15 mg/kg p.o., time 210 min) was 137.7 ± 25.8 s, the APTT (citrated plasma [4]; 15 mg/kg p.o., time 240 min) was 127.4 ± 25.7 s and the APTT (citrated plasma [4]; 15 mg/kg p.o., time 270 min) was 133.4 ± 24.7 s. The APTT (citrated plasma [4]; 15 mg/kg p.o., time 300 min) was 92.8 ± 18.4 s, the WBCT (whole blood clotting; 10 mg/kg p.o., time 0 min) was 13.2 ± 1.1 min and the WBCT (whole blood clotting; 10 mg/kg p.o., time 30 min) was 17.7 ± 1.6 min. For the same molecule, the WBCT (whole blood clotting; 10 mg/kg p.o., time 60 min) was 23.6 ± 1.9 min, the WBCT (whole blood clotting; 10 mg/kg p.o., time 90 min) was 21.2 ± 2.9 min and the WBCT (whole blood clotting; 10 mg/kg p.o., time 120 min) was 18.8 ± 1.0 min. For the same molecule, the WBCT (whole blood clotting; 10 mg/kg p.o., time 150 min) was 19.2 ± 1.1 min, the WBCT (whole blood clotting; 10 mg/kg p.o., time 180 min) was 18.4 ± 1.5 min and the WBCT (whole blood clotting; 10 mg/kg p.o., time 210 min) was 17.2 ± 2.3 min. It also gave a WBCT (whole blood clotting; 10 mg/kg p.o., time 240 min) of 15.8 ± 1.7 min, a WBCT (whole blood clotting; 10 mg/kg p.o., time 270 min) of 16.2 ± 2.1 min and a WBCT (whole blood clotting; 10 mg/kg p.o., time 300 min) of 13.5 ± 0.9 min. For the same molecule, the WBCT (whole blood clotting; 15 mg/kg p.o., time 0 min) was 14.6 ± 0.4 min, the WBCT (whole blood clotting; 15 mg/kg p.o., time 30 min) was 24.2 ± 4.7 min and the WBCT (whole blood clotting; 15 mg/kg p.o., time 60 min) was 29.4 ± 4.5 min. It also gave a WBCT (whole blood clotting; 15 mg/kg p.o., time 90 min) of 33.0 ± 5.9 min, a WBCT (whole blood clotting; 15 mg/kg p.o., time 120 min) of 34.4 ± 4.4 min and a WBCT (whole blood clotting; 15 mg/kg p.o., time 150 min) of 27.2 ± 3.6 min. The WBCT (whole blood clotting; 15 mg/kg p.o., time 180 min) was 29.5 ± 2.7 min, the WBCT (whole blood clotting; 15 mg/kg p.o., time 210 min) was 34.0 ± 5.9 min and the WBCT (whole blood clotting; 15 mg/kg p.o., time 240 min) was 33.7 ± 6.5 min. The WBCT (whole blood clotting; 15 mg/kg p.o., time 270 min) was 26.0 ± 1.2 min, the WBCT (whole blood clotting; 15 mg/kg p.o., time 300 min) was 23.6 ± 3.3 min and the “APTT: concentration required” value (citrated blood plasma [1]) was 0.20. The IWBA ([5]; 10 mg/kg p.o., time 30 min) was 89.4 ± 7.6%, the IWBA ([5]; 10 mg/kg p.o., time 60 min) was 95.8 ± 6.9% and the IWBA ([5]; 10 mg/kg p.o., time 90 min) was 81.6 ± 8.2%. It also gave an IWBA ([5]; 10 mg/kg p.o., time 120 min) of 94.0 ± 3.2%, an IWBA ([5]; 10 mg/kg p.o., time 150 min) of 71.4 ± 13.8% and an IWBA ([5]; 10 mg/kg p.o., time 180 min) of 72.4 ± 19.2%. For the same molecule, the IWBA ([5]; 10 mg/kg p.o., time 210 min) was 54.4 ± 21.0%, the IWBA ([5]; 10 mg/kg p.o., time 240 min) was 50.6 ± 17.7% and the IWBA ([5]; 10 mg/kg p.o., time 270 min) was 35.2 ± 17.3%. For the same molecule, the IWBA ([5]; 10 mg/kg p.o., time 300 min) was 48.2 ± 16.9%, the IWBA ([5]; 15 mg/kg p.o., time 30 min) was 81.4% and the IWBA ([5]; 15 mg/kg p.o., time 60 min) was 97.4%. For the same molecule, the IWBA ([5]; 15 mg/kg p.o., time 90 min) was 100.0 ± 0%, the IWBA ([5]; 15 mg/kg p.o., time 120 min) was 100.0 ± 0% and the IWBA ([5]; 15 mg/kg p.o., time 150 min) was 100.0 ± 0%. The IWBA ([5]; 15 mg/kg p.o., time 180 min) was 100.0 ± 0%, the IWBA ([5]; 15 mg/kg p.o., time 210 min) was 93.7% and the IWBA ([5]; 15 mg/kg p.o., time 240 min) was 82.6%. For the same molecule, the IWBA ([5]; 15 mg/kg p.o., time 270 min) was 81.0%, the IWBA ([5]; 15 mg/kg p.o., time 300 min) was 69.6% and the TT (citrated plasma [6]; 10 mg/kg p.o., time 0 min) was 18.4 ± 2.1 s. The TT (citrated plasma [6]; 10 mg/kg p.o., time 30 min) was 317.1 ± 123.0 s, the TT (citrated plasma [6]; 10 mg/kg p.o., time 60 min) was 416.0 ± 107.2 s and the TT (citrated plasma [6]; 10 mg/kg p.o., time 90 min) was 444.7 ± 108.6 s. The TT (citrated plasma [6]; 10 mg/kg p.o., time 120 min) was 264.6 ± 101.3 s, the TT (citrated plasma [6]; 10 mg/kg p.o., time 150 min) was 201.1 ± 109.9 s and the TT (citrated plasma [6]; 10 mg/kg p.o., time 180 min) was 182.7 ± 113.6 s. It also gave a TT (citrated plasma [6]; 10 mg/kg p.o., time 210 min) of 123.0 ± 65.3 s, a TT (citrated plasma [6]; 10 mg/kg p.o., time 240 min) of 141.5 ± 81.3 s and a TT (citrated plasma [6]; 10 mg/kg p.o., time 270 min) of 65.4 ± 25.7 s. It also gave a TT (citrated plasma [6]; 10 mg/kg p.o., time 300 min) of 41.8 ± 11.4 s, a TT (citrated plasma [6]; 15 mg/kg p.o., time 0 min) of 18.9 ± 2.1 s and a TT (citrated plasma [6]; 15 mg/kg p.o., time 30 min) of 371.2 ± 142.3 s. For the same molecule, the TT (citrated plasma [6]; 15 mg/kg p.o., time 60 min) was 528.3 ± 72.9 s, the TT (citrated plasma [6]; 15 mg/kg p.o., time 90 min) was 578.8 ± 21.5 s and the TT (citrated plasma [6]; 15 mg/kg p.o., time 120 min) was over 600.0 ± 0 s. For the same molecule, the TT (citrated plasma [6]; 15 mg/kg p.o., time 150 min) was 549.6 ± 34.0 s, the TT (citrated plasma [6]; 15 mg/kg p.o., time 180 min) was 380.7 ± 116.0 s and the TT (citrated plasma [6]; 15 mg/kg p.o., time 210 min) was 342.1 ± 121.2 s. It also gave a TT (citrated plasma [6]; 15 mg/kg p.o., time 240 min) of 340.9 ± 137.0 s, a TT (citrated plasma [6]; 15 mg/kg p.o., time 270 min) of 376.4 ± 153.0 s and a TT (citrated plasma [6]; 15 mg/kg p.o., time 300 min) of 261.0 ± 140.8 s. The “inhibitory effect on fibrinolysis induced by tissue plasminogen activator” value [3] was “only negligible inhibitory effect”, the “WBCT: concentration required” value (native whole human blood) was 0.32 and the “TT: concentration required to double the clotting time” value (citrated blood plasma [2]) was 0.072.
